Experiments:
[1] = molecular target: LTA4 hydrolase peptidase activity (Homo sapiens (Human), UniProt P09960); test: Peptidase assay (hydrolysis of L-alanine-p-nitroanilide); type: biochemical; details: L-alanine-p-nitroanilide substrate
Method: Inhibition of peptidase activity was measured for the compounds of the invention by using methods similar to those described in Kull, F. et al., The Journal of Biological Chemistry 1999, 274 (49): 34683-34690.
In brief, the enzyme (29 nM) was incubated with L-alanine-p-nitroanilide (1 mM) in 50 mM HEPES (pH 7.5), 100 mM KCL, 1% DMSO in the absence or presence of a compound of the invention for 1 hour at ambient temperature. Reaction was terminated by addition of acetic acid (1%). Formation of colored nitro-aniline was measured by the increase in absorbance at 405 nm in a Victor 2 plate reader (Wallac). Spontaneous hydrolysis of the substrate was corrected for by subtracting the absorbance of control incubations without enzyme.

[2] = molecular target: recombinant human LTA4 hydrolase (Homo sapiens (Human), UniProt P09960); test: LTA4 hydrolase homogeneous time resolved fluorescence (HTRF) assay; type: biochemical; details: inhibition of hydrolysis of LTA4 to LTB4
recombinant human LTA4 hydrolase, sequence (P09960 whole entry): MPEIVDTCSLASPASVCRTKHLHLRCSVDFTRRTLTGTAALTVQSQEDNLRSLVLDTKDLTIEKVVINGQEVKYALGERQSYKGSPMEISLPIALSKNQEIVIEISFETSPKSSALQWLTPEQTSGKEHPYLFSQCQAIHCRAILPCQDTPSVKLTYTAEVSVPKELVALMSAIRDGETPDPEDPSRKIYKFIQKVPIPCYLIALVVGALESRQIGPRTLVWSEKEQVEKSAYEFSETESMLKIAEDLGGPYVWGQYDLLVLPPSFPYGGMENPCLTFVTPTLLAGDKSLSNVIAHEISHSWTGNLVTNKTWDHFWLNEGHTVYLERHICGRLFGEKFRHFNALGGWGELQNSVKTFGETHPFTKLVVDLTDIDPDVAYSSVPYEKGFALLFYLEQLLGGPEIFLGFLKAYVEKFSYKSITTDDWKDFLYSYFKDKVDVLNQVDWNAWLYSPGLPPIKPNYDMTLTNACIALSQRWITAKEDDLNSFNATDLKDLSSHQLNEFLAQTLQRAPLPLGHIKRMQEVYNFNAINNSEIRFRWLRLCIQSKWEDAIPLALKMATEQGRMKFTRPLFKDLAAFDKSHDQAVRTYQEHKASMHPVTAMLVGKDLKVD
Method: Compounds of the invention were tested in the LTA4 hydrolase homogeneous time resolved fluorescence (HTRF) assay to determine their ability to inhibit the hydrolysis of LTA4 to LTB4. The assay analyzes the amount of LTB4 produced.
LTA4 HTRF assay is a two-step assay involving enzymatic conversion of LTA4 to LTB4, and subsequent quantification of LTB4, product with HTRF assay.
The enzymatic conversion of LTA4 to LTB4 was performed in 384-well plates at ambient temperature in a reaction mixture containing 50 mM HEPES (pH 7.5), 0.5% BSA (fatty acid free), 18 nM recombinant human LTA4 hydrolase, 150 nM LTA4, 1% DMSO in the absence or presence of a compound of the invention. […]
LTB4 formed was quantified with the HTRF assay in which free LTB4 competes with LTB4-XL665 conjugate (acceptor) for anti-LTB4 monoclonal antibody labeled with Europium cryptate (donor), thereby inhibiting the fluorescence energy transfer.
The LTB4 HTRF 384-well assay was carried out by incubating LTB4 samples or standards with LTB4-XL665 conjugate (7.5 ng/well) and anti-LTB4 monoclonal antibody-Europium cryptate conjugate (0.5 ng/well) in 50 mM phosphate, 0.4 M KF and 0.1% casein, buffer (pH 7.0) for two hours at ambient temperature. Plates were read in a RubyStar plate reader (BmG Labtechnologies Inc., NC) simultaneously at 620 nm and 665 nm to obtain signal ratios of 665 nm/620 nm. […]

[3] = tested on: LTB4 production in human whole blood; test: Whole blood assay (LTB4 release upon calcium ionophore, ELISA), human blood; type: cell-based; details: production of LTB4 in whole blood
Method: Compounds of the invention were tested for their ability as inhibitors of LTA4 hydrolase in a whole blood assay using human, mouse, rat or dog whole blood in a manner similar to that described in Penning, T. D. et al., J. Med. Chem. (2000), 43(4): 721-735. In this assay, compounds were tested for their ability to inhibit LTB4 release upon stimulation with calcium ionophore. The LTB4 levels in supernatants were measured by ELISA.

LTA4 hydrolase peptidase activity, sequence (P09960 whole entry): as above

| Compound | IC50 [1] [µM] | IC50 [2] [µM] | IC50 [3] [µM] |
| --- | --- | --- | --- |
| O=C(O)C1CCN(C(=O)CN2CCC(Nc3ccc(Oc4ccc(-c5ncco5)cc4)cc3)CC2)CC1 [Example 1, 1-(2-(4-((4-(4-(oxazol-2-yl)phenoxy)phenyl)amino)piperidin-1-yl)acetyl)piperidine-4-carboxylic acid] | 0.0071 | 0.0021 | 0.062 |
| O=C(O)c1ccc(CN2CCCC(CNc3ccc(Oc4ccc(Cl)cc4)cc3)C2)cc1 (stereo not drawn) [Example 3, 4-((3-(((4-(4-chlorophenoxy)phenyl)amino)methyl)piperidin-1-yl)methyl)benzoic acid] | 0.022 | 0.0018 | 0.1 |

— patent publication US10202362B2, “Inhibitors of leukotriene A4 hydrolase” (Celtaxsys, Inc., priority 2016, dated 2019)
